Read-outs that look alike come from different tables or passages of the source.
Key:
Experiment in all cases: biochemical
E. coli Topoisomerase IV = E. coli Topoisomerase IV (Escherichia coli, UniProt P0AFI2+P20083); conditions: for IC50: IC50 Topo IV; for inhibition at 50 µM: read-out: % inhibition Topo IV
[1] = molecular target: S. aureus Topoisomerase IV (Staphylococcus aureus, UniProt P0C1S7+P0C1U9); conditions: for IC50: IC50 Topo IV; for inhibition at 50 µM: read-out: % inhibition Topo IV
E. coli DNA gyrase = E. coli DNA gyrase (Escherichia coli, UniProt P0AES4+P0AES6); conditions: for IC50: IC50 DNA gyrase; for inhibition at 50 µM: read-out: % inhibition DNA gyrase
S. aureus DNA gyrase = S. aureus DNA gyrase (Staphylococcus aureus, UniProt P0A0K8+P20831); conditions: for IC50: IC50 DNA gyrase; for inhibition at 50 µM: read-out: % inhibition DNA gyrase
[2] = S. aureus, compound conc. 50 μM, percent of inhibition versus positive control, n/a = not active

Structure (SMILES): N#Cc1cnc2c(c1)N([C@H]1CC[C@H](NCc3cc4c(=O)oc5ccc(F)cc5c4[nH]3)CC1)C(=O)CO2 [Compound 214, 1-(trans-4-{[(8-fluoro-4-oxo-1,4-dihydro[1]benzopyrano[4,3-b]pyrrol-2-yl)methyl]amino}cyclohexyl)-2-oxo-2,3-dihydro-1H-pyrido[2,3-b][1,4]oxazine-7-carbonitrile]
- IC50 (E. coli Topoisomerase IV): 1030 nM
- inhibition at 50 µM (E. coli Topoisomerase IV): 100%
- IC50 [1]: 570 nM
- inhibition at 50 µM [1, 2]: 100%
- IC50 (E. coli DNA gyrase): 120 nM
- inhibition at 50 µM (E. coli DNA gyrase): 99%
- IC50 (S. aureus DNA gyrase): 160 nM
- inhibition at 50 µM (S. aureus DNA gyrase): 100%

Structure (SMILES): O=c1oc2ccc(F)cc2c2[nH]c(CN[C@H]3CC[C@@H](n4c(=O)cnc5ncc(F)cc54)CC3)cc12 [Compound 210, 8-fluoro-2-({[cis-4-(7-fluoro-2-oxopyrido[2,3-b]pyrazin-1(2H)-yl)cyclohexyl]amino}methyl)[1]benzopyrano[4,3-b]pyrrol-4(1H)-one]
- IC50 (E. coli Topoisomerase IV): 13800 nM
- inhibition at 50 µM (E. coli Topoisomerase IV): 86%
- IC50 [1]: 1310 nM
- inhibition at 50 µM [1, 2]: 84%
- IC50 (E. coli DNA gyrase): 440 nM
- inhibition at 50 µM (E. coli DNA gyrase): 92%
- IC50 (S. aureus DNA gyrase): 1300 nM
- inhibition at 50 µM (S. aureus DNA gyrase): 100%

Structure (SMILES): O=c1oc2ccc(F)cc2c2[nH]c(CN[C@H]3CC[C@H](n4c(=O)ccc5ncc(F)cc54)CC3)cc12 [Compound 207, 8-fluoro-2-({[trans-4-(7-fluoro-2-oxo-1,5-naphthyridin-1(2H)-yl)cyclohexyl]amino}methyl)[1]benzopyrano[4,3-b]pyrrol-4(1H)-one]
- IC50 (E. coli Topoisomerase IV): < 100 nM
- inhibition at 50 µM (E. coli Topoisomerase IV): 100%
- IC50 [1]: < 100 nM
- inhibition at 50 µM [1, 2]: 100%
- IC50 (E. coli DNA gyrase): < 100 nM
- inhibition at 50 µM (E. coli DNA gyrase): 100%
- IC50 (S. aureus DNA gyrase): < 100 nM
- inhibition at 50 µM (S. aureus DNA gyrase): 100%

Structure (SMILES): COc1cnc2ncc(=O)n([C@H]3CC[C@@H](NCc4cc5c(=O)oc6ccc(F)cc6c5[nH]4)CC3)c2c1 [Compound 213, 8-fluoro-2-({[cis-4-(7-methoxy-2-oxopyrido[2,3-b]pyrazin-1(2H)-yl)cyclohexyl]amino}methyl)[1]benzopyrano[4,3-b]pyrrol-4(1H)-one]
- IC50 (E. coli Topoisomerase IV): 1000 nM
- inhibition at 50 µM (E. coli Topoisomerase IV): 97%
- IC50 [1]: 580 nM
- inhibition at 50 µM [1, 2]: 84%
- IC50 (E. coli DNA gyrase): 110 nM
- inhibition at 50 µM (E. coli DNA gyrase): 98%
- IC50 (S. aureus DNA gyrase): 280 nM
- inhibition at 50 µM (S. aureus DNA gyrase): 100%

Structure (SMILES): O=C1COc2ncc(F)cc2N1[C@H]1CC[C@H](NCCNc2cc(=O)oc3ccc(F)cc23)CC1 [Compound 354, 7-fluoro-1-[trans-4-({2-[(6-fluoro-2-oxo-2H-1-benzopyran-4-yl)amino]ethyl}amino)cyclohexyl]-1H-pyrido[2,3-b][1,4]oxazin-2(3H)-one]
- IC50 (E. coli Topoisomerase IV): 180 nM
- IC50 [1]: 920 nM
- IC50 (E. coli DNA gyrase): 470 nM
- IC50 (S. aureus DNA gyrase): 350 nM

Structure (SMILES): O=C1COc2ncc(F)cc2N1[C@H]1CC[C@](CO)(NCc2cc3c(=O)oc4ccc(F)cc4c3[nH]2)CC1 [Compound 220, 8-fluoro-2-({[trans-4-(7-fluoro-2-oxo-2,3-dihydro-1H-pyrido[2,3-b][1,4]oxazin-1-yl)-1-(hydroxymethyl)cyclohexyl]amino}methyl)[1]benzopyrano[4,3-b]pyrrol-4(1H)-one]
- IC50 (E. coli Topoisomerase IV): 740 nM
- inhibition at 50 µM (E. coli Topoisomerase IV): 50%
- IC50 [1]: 2910 nM
- inhibition at 50 µM [1, 2]: 100%
- IC50 (E. coli DNA gyrase): 680 nM
- inhibition at 50 µM (E. coli DNA gyrase): 100%
- IC50 (S. aureus DNA gyrase): 1970 nM
- inhibition at 50 µM (S. aureus DNA gyrase): 100%

Structure (SMILES): COc1ccc2ncc(=O)n([C@H]3CC[C@H](NCc4cc5c(=O)oc6ccc(F)cc6c5[nH]4)CC3)c2n1 [Compound 201, 8-fluoro-2-({[trans-4-(6-methoxy-3-oxopyrido[2,3-b]pyrazin-4(3H)-yl)cyclohexyl]amino}methyl)[1]benzopyrano[4,3-b]pyrrol-4(1H)-one]
- IC50 (E. coli Topoisomerase IV): < 100 nM
- inhibition at 50 µM (E. coli Topoisomerase IV): 100%
- IC50 [1]: < 100 nM
- inhibition at 50 µM [1]: 100%
- IC50 (E. coli DNA gyrase): < 100 nM
- inhibition at 50 µM (E. coli DNA gyrase): 100%
- IC50 (S. aureus DNA gyrase): 190 nM
- inhibition at 50 µM (S. aureus DNA gyrase): 100%

Structure (SMILES): N#Cc1ccc2ccc(=O)n([C@H]3CC[C@H](NCc4cc5c(=O)oc6ccc(F)cc6c5[nH]4)CC3)c2c1 [Compound 206, 1-(trans-4-{[(8-fluoro-4-oxo-1,4-dihydro[1]benzopyrano[4,3-b]pyrrol-2-yl)methyl]amino}cyclohexyl)-2-oxo-1,2-dihydroquinoline-7-carbonitrile]
- IC50 (E. coli Topoisomerase IV): < 100 nM
- inhibition at 50 µM (E. coli Topoisomerase IV): 100%
- IC50 [1]: < 100 nM
- inhibition at 50 µM [1, 2]: 100%
- IC50 (E. coli DNA gyrase): 50 nM
- inhibition at 50 µM (E. coli DNA gyrase): 100%
- IC50 (S. aureus DNA gyrase): 130 nM
- inhibition at 50 µM (S. aureus DNA gyrase): 100%

Structure (SMILES): O=C1COc2ncc(F)cc2N1[C@H]1CC[C@H](NCc2cc3c(=O)oc4ccc(F)cc4c3[nH]2)CC1 [Compound 193, 8-fluoro-2-({[trans-4-(7-fluoro-2-oxo-2,3-dihydro-1H-pyrido[2,3-b][1,4]oxazin-1-yl)cyclohexyl]amino}methyl)[1]benzopyrano[4,3-b]pyrrol-4(1H)-one]
- IC50 (E. coli Topoisomerase IV): 1380 nM
- inhibition at 50 µM (E. coli Topoisomerase IV): 50%
- IC50 [1]: 2250 nM
- inhibition at 50 µM [1]: 74%
- IC50 (E. coli DNA gyrase): 250 nM
- inhibition at 50 µM (E. coli DNA gyrase): 77%
- IC50 (S. aureus DNA gyrase): 280 nM
- inhibition at 50 µM (S. aureus DNA gyrase): 86%

Structure (SMILES): COc1cnc2ccc(=O)n([C@H]3CC[C@H](NCc4cc5c(=O)oc6ccc(F)cc6c5[nH]4)CC3)c2c1 [Compound 204, 8-fluoro-2-({[trans-4-(7-methoxy-2-oxo-1,5-naphthyridin-1(2H)-yl)cyclohexyl]amino}methyl)[1]benzopyrano[4,3-b]pyrrol-4(1H)-one]
- IC50 (E. coli Topoisomerase IV): < 100 nM
- inhibition at 50 µM (E. coli Topoisomerase IV): 100%
- IC50 [1]: < 100 nM
- inhibition at 50 µM [1, 2]: 100%
- IC50 (E. coli DNA gyrase): 50 nM
- inhibition at 50 µM (E. coli DNA gyrase): 100%
- IC50 (S. aureus DNA gyrase): 640 nM
- inhibition at 50 µM (S. aureus DNA gyrase): 100%

Structure (SMILES): O=c1oc2ccccc2c2[nH]c(CNCC3CCN(c4nccc5ccc(F)cc45)C3)cc12 (single isomer, unassigned) [Compound 180, 2-[({[1-(7-fluoroisoquinolin-1-yl)pyrrolidin-3-yl]methyl}amino)methyl][1]benzopyrano[4,3-b]pyrrol-4(1H)-one]
- % inhibition Topo IV (E. coli Topoisomerase IV): 57%
- IC50 (E. coli Topoisomerase IV): 3780 nM
- IC50 [1]: 110 nM
- inhibition at 50 µM [1, 2]: 50%
- IC50 (E. coli DNA gyrase): 480 nM
- inhibition at 50 µM (E. coli DNA gyrase): 58%
- IC50 (S. aureus DNA gyrase): 1700 nM
- inhibition at 50 µM (S. aureus DNA gyrase): 90%

Structure (SMILES): O=c1cc(NCC(O)C2CCN(C[C@@H]3Cn4c(=O)ccc5ncc(=O)n3c54)CC2)c2cc(F)ccc2o1 (mixture of isomers) [Compound 343, (2R)-2-[(4-{2-[(6-fluoro-2-oxo-2H-1-benzopyran-4-yl)amino]-1-hydroxyethyl}piperidin-1-yl)methyl]-1,2-dihydro-3H,8H-2a,5,8a-triazaacenaphthylene-3,8-dione]
- IC50 (E. coli Topoisomerase IV): 1270 nM
- IC50 [1]: 8730 nM
- IC50 (E. coli DNA gyrase): 910 nM
- IC50 (S. aureus DNA gyrase): 1980 nM

Structure (SMILES): COc1cnc2ncc(=O)n([C@H]3CC[C@H](NCc4cc5c(=O)oc6ccc(F)cc6c5[nH]4)CC3)c2c1 [Compound 212, 8-fluoro-2-({[trans-4-(7-methoxy-2-oxopyrido[2,3-b]pyrazin-1(2H)-yl)cyclohexyl]amino}methyl)[1]benzopyrano[4,3-b]pyrrol-4(1H)-one]
- IC50 (E. coli Topoisomerase IV): 170 nM
- inhibition at 50 µM (E. coli Topoisomerase IV): 100%
- IC50 [1]: 70 nM
- inhibition at 50 µM [1, 2]: 100%
- IC50 (E. coli DNA gyrase): 100 nM
- inhibition at 50 µM (E. coli DNA gyrase): 100%
- IC50 (S. aureus DNA gyrase): 140 nM
- inhibition at 50 µM (S. aureus DNA gyrase): 100%

Structure (SMILES): O=c1oc2ccc(F)cc2c2[nH]c(CN[C@H]3CC[C@H](n4c(=O)cnc5ccc(F)cc54)CC3)cc12 [Compound 211, 8-fluoro-2-({[trans-4-(7-fluoro-2-oxoquinoxalin-1(2H)-yl)cyclohexyl]amino}methyl)[1]benzopyrano[4,3-b]pyrrol-4(1H)-one]
- IC50 (E. coli Topoisomerase IV): < 100 nM
- inhibition at 50 µM (E. coli Topoisomerase IV): 100%
- IC50 [1]: < 100 nM
- inhibition at 50 µM [1, 2]: 100%
- IC50 (E. coli DNA gyrase): < 100 nM
- inhibition at 50 µM (E. coli DNA gyrase): 100%
- IC50 (S. aureus DNA gyrase): < 100 nM
- inhibition at 50 µM (S. aureus DNA gyrase): 100%

Structure (SMILES): NC(=O)[C@]1(NCc2cc3c(=O)oc4ccc(F)cc4c3[nH]2)CC[C@H](N2C(=O)COc3ncc(F)cc32)CC1 [Compound 217, Trans-1-{[(8-fluoro-4-oxo-1,4-dihydro[1]benzopyrano[4,3-b]pyrrol-2-yl)methyl]amino}-4-(7-fluoro-2-oxo-2,3-dihydro-1H-pyrido[2,3-b][1,4]oxazin-1-yl)cyclohexane-1-carboxamide]
- IC50 (E. coli Topoisomerase IV): 690 nM
- inhibition at 50 µM (E. coli Topoisomerase IV): 50%
- IC50 [1]: 2720 nM
- inhibition at 50 µM [1, 2]: 100%
- IC50 (E. coli DNA gyrase): 1450 nM
- inhibition at 50 µM (E. coli DNA gyrase): 82%
- IC50 (S. aureus DNA gyrase): 2150 nM
- inhibition at 50 µM (S. aureus DNA gyrase): 100%

Structure (SMILES): O=C1COc2ncc(F)cc2N1[C@H]1CC[C@H](NCc2cc3c(=O)oc4cccnc4c3[nH]2)CC1 [Compound 301]
- IC50 (E. coli Topoisomerase IV): 430 nM
- IC50 [1]: 70300 nM
- IC50 (E. coli DNA gyrase): 460 nM
- IC50 (S. aureus DNA gyrase): 720 nM

Source: US10633366B2, “Antibacterial compounds” (AZIENDE CHIMICHE RIUNITE ANGELINI FRANCESCO A.C.R.A.F. …, priority 2016, dated 2020)
